Experimental data as given in article PMC7366380, “Discovery of a Potent and Selective Covalent Inhibitor and Activity-Based Probe for the Deubiquitylating Enzyme UCHL1, with Antifibrotic Activity” (Journal of the American Chemical Society, 2020).
Values joined by “and” are separate entries in the source; they are usually repeats but may differ in a detail not shown here. Identical values can stand only once.

Columns and labels:
[1] = biological target: T1, DUBs and other proteins in HEK293 cells (Homo sapiens, UniProt Q9Y4E8); experiment: In-cell proteome-wide competitive ABPP, HEK293: other DUBs and proteins; details: replicates A-C; for Log2 reporter intensity values: USP15: competition with ABP 2, DMSO substract (FC); for Log2 reporter intensity values: USP15, DMSO subtracted
T1 sequence (Q9Y4E8 1-981): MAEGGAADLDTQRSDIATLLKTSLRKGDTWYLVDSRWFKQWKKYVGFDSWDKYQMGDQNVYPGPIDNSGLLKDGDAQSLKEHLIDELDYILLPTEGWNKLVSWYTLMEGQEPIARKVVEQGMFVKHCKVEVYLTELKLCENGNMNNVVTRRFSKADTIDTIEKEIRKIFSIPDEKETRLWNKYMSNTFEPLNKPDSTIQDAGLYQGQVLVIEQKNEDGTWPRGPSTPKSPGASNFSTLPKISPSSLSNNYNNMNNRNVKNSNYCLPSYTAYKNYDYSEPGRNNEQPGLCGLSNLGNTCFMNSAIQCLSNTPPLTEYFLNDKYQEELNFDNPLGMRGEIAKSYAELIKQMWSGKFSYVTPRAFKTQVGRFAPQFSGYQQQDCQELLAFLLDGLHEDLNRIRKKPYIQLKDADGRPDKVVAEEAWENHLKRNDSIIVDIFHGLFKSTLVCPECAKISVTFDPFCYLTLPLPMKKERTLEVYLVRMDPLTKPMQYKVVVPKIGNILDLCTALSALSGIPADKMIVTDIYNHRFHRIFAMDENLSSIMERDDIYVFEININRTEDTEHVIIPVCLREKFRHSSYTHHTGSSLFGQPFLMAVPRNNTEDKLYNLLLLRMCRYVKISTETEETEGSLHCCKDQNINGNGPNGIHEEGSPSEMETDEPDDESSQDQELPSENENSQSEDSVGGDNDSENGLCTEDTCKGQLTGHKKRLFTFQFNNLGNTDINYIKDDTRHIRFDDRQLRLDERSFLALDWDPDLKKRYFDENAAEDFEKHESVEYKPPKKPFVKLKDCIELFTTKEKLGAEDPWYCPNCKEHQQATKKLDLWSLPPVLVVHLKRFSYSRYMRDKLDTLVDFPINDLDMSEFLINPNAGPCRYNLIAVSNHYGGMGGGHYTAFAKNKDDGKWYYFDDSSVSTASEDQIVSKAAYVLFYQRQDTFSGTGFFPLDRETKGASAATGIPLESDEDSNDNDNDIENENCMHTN

[2] = biological target: DUBs and other proteins in HEK293 cells (Homo sapiens, UniProt O15372); experiment: as above; details: for Log2 reporter intensity values, EIF3H: TMT replicates; for Log2 reporter intensity values: EIF3H: competition with ABP 2, DMSO substract (FC); for Log2 reporter intensity values: EIF3H / Log2 reporter intensity values: replicates A-C; for Log2 t-test Difference / Log2 reporter intensity values: EIF3H
Sequence of DUBs and other proteins in HEK293 cells (Homo sapiens, UniProt O15372) (O15372 whole entry): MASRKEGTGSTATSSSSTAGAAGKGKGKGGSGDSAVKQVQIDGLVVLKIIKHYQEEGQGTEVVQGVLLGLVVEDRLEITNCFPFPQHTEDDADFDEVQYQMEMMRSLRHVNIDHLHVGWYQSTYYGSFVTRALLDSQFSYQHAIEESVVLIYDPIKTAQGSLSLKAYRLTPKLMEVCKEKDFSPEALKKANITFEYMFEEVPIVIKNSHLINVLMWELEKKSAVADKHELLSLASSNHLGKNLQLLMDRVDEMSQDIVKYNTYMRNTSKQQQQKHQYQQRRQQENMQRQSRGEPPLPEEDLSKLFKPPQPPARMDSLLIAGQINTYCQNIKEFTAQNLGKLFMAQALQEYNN

[3] = biological target: T2, DUBs and other proteins in HEK293 cells (Homo sapiens, UniProt Q96RU2); experiment: as above; details: replicates A-C; for Log2 reporter intensity values: USP28: competition with ABP 2, DMSO substract (FC); for Log2 reporter intensity values: USP28, DMSO subtracted
T2 sequence (Q96RU2 1-1077): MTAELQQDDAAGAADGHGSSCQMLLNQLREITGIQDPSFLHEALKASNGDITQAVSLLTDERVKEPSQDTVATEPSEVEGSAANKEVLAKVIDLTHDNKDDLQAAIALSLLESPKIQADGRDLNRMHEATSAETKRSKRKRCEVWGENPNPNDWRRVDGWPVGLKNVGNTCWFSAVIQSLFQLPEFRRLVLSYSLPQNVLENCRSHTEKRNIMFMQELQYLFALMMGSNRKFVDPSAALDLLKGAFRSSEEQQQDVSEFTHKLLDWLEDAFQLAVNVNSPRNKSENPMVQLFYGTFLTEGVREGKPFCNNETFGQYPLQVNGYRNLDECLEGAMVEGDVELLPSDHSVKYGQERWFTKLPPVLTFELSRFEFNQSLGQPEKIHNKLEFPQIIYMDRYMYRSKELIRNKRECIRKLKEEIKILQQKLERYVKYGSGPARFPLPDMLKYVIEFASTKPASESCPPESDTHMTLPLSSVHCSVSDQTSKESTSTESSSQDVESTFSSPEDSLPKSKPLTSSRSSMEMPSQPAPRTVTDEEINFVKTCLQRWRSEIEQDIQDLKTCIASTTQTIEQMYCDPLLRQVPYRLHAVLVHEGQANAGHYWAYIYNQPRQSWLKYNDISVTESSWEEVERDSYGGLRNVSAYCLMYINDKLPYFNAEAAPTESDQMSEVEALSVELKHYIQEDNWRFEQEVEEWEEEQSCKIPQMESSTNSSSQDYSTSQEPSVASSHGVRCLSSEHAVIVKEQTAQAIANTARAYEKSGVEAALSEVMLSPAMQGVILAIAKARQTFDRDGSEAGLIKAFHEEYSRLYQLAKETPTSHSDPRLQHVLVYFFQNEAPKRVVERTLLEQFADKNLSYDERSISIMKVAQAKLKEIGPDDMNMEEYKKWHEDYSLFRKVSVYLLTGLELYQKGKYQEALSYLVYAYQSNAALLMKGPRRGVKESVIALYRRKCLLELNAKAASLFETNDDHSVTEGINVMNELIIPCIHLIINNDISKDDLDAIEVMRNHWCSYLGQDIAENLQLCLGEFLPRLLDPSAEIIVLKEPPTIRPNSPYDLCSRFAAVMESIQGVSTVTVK

[4] = biological target: DUBs and other proteins in HEK293 cells (Homo sapiens, UniProt Q93009); experiment: as above; details: replicates A-C; for Log2 reporter intensity values: USP7: competition with ABP 2, DMSO substract (FC); for Log2 reporter intensity values: USP7, DMSO subtracted
Sequence of DUBs and other proteins in HEK293 cells (Homo sapiens, UniProt Q93009) (Q93009 whole entry): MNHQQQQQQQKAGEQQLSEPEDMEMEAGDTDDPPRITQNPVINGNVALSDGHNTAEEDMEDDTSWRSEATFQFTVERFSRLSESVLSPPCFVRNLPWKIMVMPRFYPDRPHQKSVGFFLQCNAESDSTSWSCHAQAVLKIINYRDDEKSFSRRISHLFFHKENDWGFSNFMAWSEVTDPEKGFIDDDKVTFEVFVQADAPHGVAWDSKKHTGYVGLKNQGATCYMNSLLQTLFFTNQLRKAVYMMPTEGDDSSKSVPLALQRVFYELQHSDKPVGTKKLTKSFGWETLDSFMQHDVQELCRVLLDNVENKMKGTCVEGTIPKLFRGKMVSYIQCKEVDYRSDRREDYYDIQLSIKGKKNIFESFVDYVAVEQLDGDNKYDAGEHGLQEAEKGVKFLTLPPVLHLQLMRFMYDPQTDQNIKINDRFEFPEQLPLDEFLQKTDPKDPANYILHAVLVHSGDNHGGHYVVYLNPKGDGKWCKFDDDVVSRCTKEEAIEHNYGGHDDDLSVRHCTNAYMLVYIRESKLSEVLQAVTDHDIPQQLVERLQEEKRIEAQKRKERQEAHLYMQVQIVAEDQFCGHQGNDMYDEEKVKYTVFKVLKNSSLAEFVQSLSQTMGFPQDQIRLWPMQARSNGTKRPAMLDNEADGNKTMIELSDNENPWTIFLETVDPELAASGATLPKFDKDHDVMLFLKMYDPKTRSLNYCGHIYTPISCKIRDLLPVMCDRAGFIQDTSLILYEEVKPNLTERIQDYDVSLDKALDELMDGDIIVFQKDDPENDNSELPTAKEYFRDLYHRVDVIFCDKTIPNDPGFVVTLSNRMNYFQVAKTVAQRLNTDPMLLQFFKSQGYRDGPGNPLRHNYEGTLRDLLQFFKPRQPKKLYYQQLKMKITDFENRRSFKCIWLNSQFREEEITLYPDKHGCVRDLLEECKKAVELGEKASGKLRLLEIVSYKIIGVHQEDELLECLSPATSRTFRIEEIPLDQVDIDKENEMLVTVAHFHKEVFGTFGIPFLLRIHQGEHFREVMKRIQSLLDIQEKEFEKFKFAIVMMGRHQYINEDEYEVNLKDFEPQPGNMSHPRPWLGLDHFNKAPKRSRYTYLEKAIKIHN

OTUB2 = biological target: T3, OTUB2 (Homo sapiens, UniProt Q96DC9); experiment: biochemical
T3 sequence (Q96DC9 1-234): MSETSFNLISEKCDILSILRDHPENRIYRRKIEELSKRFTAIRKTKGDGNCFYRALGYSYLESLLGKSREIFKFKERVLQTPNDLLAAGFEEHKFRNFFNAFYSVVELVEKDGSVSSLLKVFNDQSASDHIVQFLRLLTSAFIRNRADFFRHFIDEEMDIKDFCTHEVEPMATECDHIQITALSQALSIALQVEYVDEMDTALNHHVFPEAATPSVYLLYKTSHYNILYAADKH

N#CN1CCC[C@@H]1C(=O)N1CCc2c(-c3c[nH]c4ncccc34)cccc21 [Compound 3]
Log2 reporter intensity values: USP15 ([1]; 3 at 1 μM): 1.093 and 1.008 and 1.068
Log2 reporter intensity values: USP15 ([1]; 3 at 4 μM): 1.017 and 0.9783 and 1.019
Log2 reporter intensity values ([1]; 3_1 μM): 0.09224 and 0.007674 and 0.06804
Log2 reporter intensity values ([1]; 3_4 μM): 0.01634 and -0.02192 and 0.0187
Log2 reporter intensity values ([1]; 3 at 1 μM): 0.1276 and 0.0114 and 0.09532
Log2 reporter intensity values ([1]; 3 at 4 μM): 0.02376 and -0.03158 and 0.02709
Log2 reporter intensity values, EIF3H ([2]; 1 μM 3 (60 min) + 20 nM ABP 2 (10 min), All values): -0.08032 and 0.01397 and -0.006379
Log2 reporter intensity values, EIF3H ([2]; 1 μM 3 (60 min) + 20 nM ABP 2 (10 min), DMSO subtracted): -0.1099 and -0.01562 and -0.03597
Log2 reporter intensity values, EIF3H ([2]; 4 μM 3 (60 min) + 20 nM ABP 2 (10 min), All values): 0.0444 and 0.04115 and 0.06318
Log2 reporter intensity values, EIF3H ([2]; 4 μM 3 (60 min) + 20 nM ABP 2 (10 min), DMSO subtracted): 0.01481 and 0.01156 and 0.03359
Log2 reporter intensity values: EIF3H ([2]; 3 at 1 μM): 0.9266 and 0.9892 and 0.9754
Log2 reporter intensity values: EIF3H ([2]; 3 at 4 μM): 1.01 and 1.008 and 1.024
Log2 t-test Difference ([2]; 3 - 1 μM): -0.05018
Log2 t-test Difference ([2]; 3 - 4 μM): 0.02364
Log2 reporter intensity values ([2]; 3_1 μM, DMSO subtracted): -0.0735 and -0.01091 and -0.02477
Log2 reporter intensity values ([2]; 3_4 μM, DMSO subtracted): 0.01017 and 0.007903 and 0.02341
Log2 reporter intensity values ([2]; 3 at 1 μM, DMSO subtracted): -0.1099 and -0.01562 and -0.03597
Log2 reporter intensity values ([2]; 3 at 4 μM, DMSO subtracted): 0.01481 and 0.01156 and 0.03359
Log2 reporter intensity values: USP28 ([3]; 3 at 1 μM): 1.351 and 1.11 and 0.8433
Log2 reporter intensity values: USP28 ([3]; 3 at 4 μM): 0.6356 and 0.4265 and 0.9775
Log2 reporter intensity values ([3]; 3_1 μM): 0.3111 and 0.07023 and -0.1965
Log2 reporter intensity values ([3]; 3_4 μM): -0.4041 and -0.6132 and -0.06225
Log2 reporter intensity values ([3]; 3 at 1 μM): 0.4339 and 0.1505 and -0.246
Log2 reporter intensity values ([3]; 3 at 4 μM): -0.6539 and -1.229 and -0.03288
Log2 reporter intensity values: USP7 ([4]; 3 at 1 μM): 1.005 and 1.034 and 1.047
Log2 reporter intensity values: USP7 ([4]; 3 at 4 μM): 0.9485 and 1.006 and 0.9977
Log2 reporter intensity values ([4]; 3_1 μM): 0.004952 and 0.03394 and 0.04709
Log2 reporter intensity values ([4]; 3_4 μM): -0.05181 and 0.006115 and -0.002591
Log2 reporter intensity values ([4]; 3 at 1 μM): 0.007531 and 0.04854 and 0.06677
Log2 reporter intensity values ([4]; 3 at 4 μM): -0.07633 and 0.0092 and -0.003335
IC50 (OTUB2): > 10 µM
